Laboratory results published in ChEMBL document CHEMBL1128927, “Synthesis and biological activities of [N-MeLeu5] didemnin B” (Bioorg Med Chem Lett, 1996).

Key:
Assay type in all cases: functional
Oryctolagus cuniculus = organism: Oryctolagus cuniculus; assay: In vitro inhibition of protein synthesis in rabbit reticulocyte lysates.
SNB-75 = assay: Compound was evaluated for cytotoxic activity against CNS cancer SNB-75 cell lines.; conditions: Homo sapiens, read-out: LC50 (the source's name)
A549 = assay: Compound was evaluated for cytotoxic activity against non-small lung cancer A549/ATCC cell lines.; conditions: Homo sapiens, read-out: LC50 (the source's name)
RXF 393 = assay: Compound was evaluated for cytotoxic activity against renal cancer RXF-393 cell lines.; conditions: Homo sapiens, read-out: LC50 (the source's name)
SK-MEL-5 = assay: Compound was evaluated for cytotoxic activity against melanoma Sk-MEL-5 cell lines.; conditions: Homo sapiens, read-out: LC50 (the source's name)
HT-29 = assay: Compound was evaluated for cytotoxic activity against colon cancer HT-29 cell lines.; conditions: Homo sapiens, read-out: LC50 (the source's name)

Structure (SMILES) | IC50 (Oryctolagus cuniculus) [µM] | CC50 (SNB-75) [nM] | CC50 (A549) [µM] | CC50 (RXF 393) [nM] | CC50 (SK-MEL-5) [nM] | CC50 (HT-29) [nM]
CC[C@H](C)[C@H]1NC(=O)[C@@H](NC(=O)[C@@H](CC(C)C)N(C)C(=O)[C@@H]2CCCN2C(=O)[C@H](C)O)[C@@H](C)OC(=O)[C@H](CC(C)C)N(C)C(=O)[C@@H]2CCCN2C(=O)[C@H](CC(C)C)NC(=O)[C@@H](C)C(=O)[C@H](C(C)C)OC(=O)C[C@@H]1O [listing 1 of 2 here] | 9 | – | – | – | – | –
CC[C@H](C)[C@H]1NC(=O)[C@@H](NC(=O)[C@@H](CC(C)C)N(C)C(=O)[C@@H]2CCCN2C(=O)[C@H](C)O)[C@@H](C)OC(=O)[C@H](CC(C)C)N(C)C(=O)[C@@H]2CCCN2C(=O)[C@H](CC(C)C)NC(=O)[C@@H](C)C(=O)[C@H](C(C)C)OC(=O)C[C@@H]1O [listing 2 of 2 here] | – | 399 | > 25 | 258 | 79.9 | 445
